Reference: BindingDB's records for patent US20250177582 (Philochem, 2025)

How the values were obtained:
Prolyl endopeptidase FAP [1] = target: T1, Prolyl endopeptidase FAP (Mus musculus, UniProt P97321); test: Inhibition Assay
T1 sequence (P97321 whole entry): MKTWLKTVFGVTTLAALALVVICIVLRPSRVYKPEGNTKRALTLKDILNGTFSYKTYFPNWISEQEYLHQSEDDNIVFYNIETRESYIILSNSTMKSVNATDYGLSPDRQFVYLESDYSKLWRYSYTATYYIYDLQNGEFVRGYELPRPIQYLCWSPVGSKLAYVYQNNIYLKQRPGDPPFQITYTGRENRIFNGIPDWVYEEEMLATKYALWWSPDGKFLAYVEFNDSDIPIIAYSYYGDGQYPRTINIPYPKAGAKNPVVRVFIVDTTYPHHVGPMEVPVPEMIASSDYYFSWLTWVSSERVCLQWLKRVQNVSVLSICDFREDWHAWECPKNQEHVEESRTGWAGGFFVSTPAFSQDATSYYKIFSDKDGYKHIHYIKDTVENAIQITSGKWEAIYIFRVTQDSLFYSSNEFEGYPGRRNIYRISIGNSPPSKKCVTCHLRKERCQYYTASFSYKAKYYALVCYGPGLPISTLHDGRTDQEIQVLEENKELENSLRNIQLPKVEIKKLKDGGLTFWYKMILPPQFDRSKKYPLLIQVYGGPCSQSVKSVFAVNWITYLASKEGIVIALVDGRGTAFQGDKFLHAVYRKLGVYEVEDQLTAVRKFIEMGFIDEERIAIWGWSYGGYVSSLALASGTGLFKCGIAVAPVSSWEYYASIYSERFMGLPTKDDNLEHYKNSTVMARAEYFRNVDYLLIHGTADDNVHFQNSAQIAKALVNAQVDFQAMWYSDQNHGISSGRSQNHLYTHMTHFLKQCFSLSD
Method: (§1) Inhibition assay of FAP. The compounds were precisely weighed (range between […]) on a micro-scale (HuberLab, Sartorius QUINTIX35-1S) and dissolved in DMSO to prepare stock solutions at 1 mM. Stock solutions were further diluted with FAP activation buffer (50 mM Tris, 100 mM NaCl, 1 mM EDTA, pH=7.4) to a final DMSO concentration of 10% v/v. 10 μL of each inhibitor were serially diluted in a 384 well plate (grenier-bio one, PS, F-bottom, Black, non-binding) with 10 μL of 10% DMSO FAP buffer (1:1 dilution). FAP (human and murine) was diluted to the desired concentration with FAP activation buffer and added to the serial dilution of inhibitor (10 μL for each well). Each protein-inhibitor solution was incubated for 30 minutes at room temperature. Each measurement was performed with an enzyme concentration (FAP) lower than the expected IC50. A 60 μM solution of substrate (Z-Gly-Pro-AMC) in FAP activation buffer (<1% DMSO) was added to the plate (10 μL for each well). The reaction was incubated from 1 minute to 48 hours at room temperature (22° C.-25° C.). The emission was read at 465 nm (excitation wavelength 360 nm) for 40 μs by Tecan Spark (s.n. 1808004082). […]

Prolyl endopeptidase FAP [2] = target: T2, Prolyl endopeptidase FAP (Homo sapiens, UniProt Q12884); test: Inhibition Assay
T2 sequence (Q12884 whole entry): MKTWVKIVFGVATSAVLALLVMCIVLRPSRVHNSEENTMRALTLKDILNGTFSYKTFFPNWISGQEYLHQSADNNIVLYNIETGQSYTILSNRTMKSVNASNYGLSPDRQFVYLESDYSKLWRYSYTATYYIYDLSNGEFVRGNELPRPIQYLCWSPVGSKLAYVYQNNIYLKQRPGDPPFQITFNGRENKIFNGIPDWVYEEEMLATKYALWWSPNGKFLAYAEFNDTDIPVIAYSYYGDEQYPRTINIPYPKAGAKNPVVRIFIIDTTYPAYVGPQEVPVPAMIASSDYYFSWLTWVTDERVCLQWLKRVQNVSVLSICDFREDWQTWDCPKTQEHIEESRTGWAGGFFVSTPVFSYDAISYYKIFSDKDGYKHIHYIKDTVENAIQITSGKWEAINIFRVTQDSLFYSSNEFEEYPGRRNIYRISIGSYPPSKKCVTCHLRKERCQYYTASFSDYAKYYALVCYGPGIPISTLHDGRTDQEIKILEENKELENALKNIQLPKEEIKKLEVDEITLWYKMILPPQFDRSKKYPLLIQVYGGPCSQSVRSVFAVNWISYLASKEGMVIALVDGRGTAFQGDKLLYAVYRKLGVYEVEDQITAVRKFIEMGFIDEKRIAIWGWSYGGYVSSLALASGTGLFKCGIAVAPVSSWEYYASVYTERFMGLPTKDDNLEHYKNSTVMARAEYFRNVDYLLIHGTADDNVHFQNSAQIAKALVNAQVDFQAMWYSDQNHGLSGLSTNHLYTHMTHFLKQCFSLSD
Method: as §1

C#CC[C@H](NC(=O)[C@H](CCCNC(=N)N(C)C)NC(=O)c1coc(CNC(=O)CCC(=O)N2CC(F)(F)C[C@H]2C#N)c1)C(=O)N[C@@H](CCCCN)C(=O)O [US20250177582, Compound 2]
IC50 (Prolyl endopeptidase FAP [1]): 29.2 nM | IC50 (Prolyl endopeptidase FAP [2]): 44.1 nM
